# Results reported in patent US4710498A, “Pyridyloxy derivatives” (Ikeda Mohando Co., Ltd., priority 1984, dated 1987).
# Like-named read-outs stand apart in the source and are kept apart here.
# Experiments:
# [1] = tested on: Gastric Acid Secretion Induced by Histamine; test: Inhibition effect on gastric acid secretion induced by histamine in pylorus ligated rat (subcutaneous); type: in vivo, male Wistar rat
# Description: (§1) A male Wistar rat having a body weight of about 160 g and which had not fed for 24 hours was anesthetized by an intraperitoneal dose of 1.2 g/kg of urethane. After ligating of pylorus and esophagus, the gaster anterior was incised and fitting with a double polyethylene cannula. The wall of the stomach was rinsed with 5 ml of saline at 30 minutes intervals, and the quantity of gastric acid contained in each rinsing solution was measured by titration.
# The basal acid secretion was initially measured three times, and then 0.2 mg/kg of each of the compounds of this invention was administered subcutaneously and 3 mg/kg of histamine was administered subcutaneously after the lapse of an additional 30 minutes.
# (§2) The quantity of gastric acid secreted after the operation was measured continuously for 3 hours. Within that measurement interval, three time points at which the increase in acid secretion reached a maximum level were selected, and the average quantity of gastric acid secreted at those time points was taken as the increase in acid secretion, which was compared with the increase in acid secretion of the control group to calculate the percent inhibition for secretion of gastric acid (Table 1). [formula] (The result was shown as the average value of five runs.)
# [2] = tested on: Gastric Acid Secretion Induced by Histamine; test: Inhibitory effect of intraduodenally administered compounds on gastric acid secretion induced by histamine in rat; type: in vivo, male Wistar rat; conditions: for ED50: Rattus norvegicus; for Efficacy Ratio relative to Cimetidine (Cimetidine = 1): rat, in vivo
# Description: The test was conducted by an improved method based on that reported by Watanabe et al., in "Pharmacometrics", Vol. 3, No. (1), pages 7 to 14 (1969).
# as §1, §2
# [3] = biological target: T1, Histamine H2 -Receptor (Cavia porcellus, UniProt P47747); test: biochemical; design: species or system male Hartley guinea pig; conditions: for Kb: negative logarithm of molar concentration, isolated guinea pig atrium, read-out: Antagonistic Action against Histamine H2 -Receptor (pA2) Determined by Using Atrium isolated from Guinea Pig (converted)
# T1 construct: from tissue; host or cells: isolated right atrium of male Hartley guinea pig
# T1 sequence (P47747 whole entry): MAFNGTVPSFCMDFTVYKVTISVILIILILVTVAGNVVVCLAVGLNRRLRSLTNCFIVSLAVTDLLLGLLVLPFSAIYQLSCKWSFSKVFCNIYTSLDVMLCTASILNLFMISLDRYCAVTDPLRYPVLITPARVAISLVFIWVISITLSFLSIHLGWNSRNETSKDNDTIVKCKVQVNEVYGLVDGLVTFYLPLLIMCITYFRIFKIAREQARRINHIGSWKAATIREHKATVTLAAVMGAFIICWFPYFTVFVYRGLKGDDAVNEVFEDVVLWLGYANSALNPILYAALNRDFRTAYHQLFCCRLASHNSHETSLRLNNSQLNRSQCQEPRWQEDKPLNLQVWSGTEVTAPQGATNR
# Description: A male Hartley guinea pig having a body weight of about 400 g was killed by cervical dislocation, and the atrium thereof was isolated and was suspended in an organ bath containing […] of a modified Ringer solution and subjected to a tension of 1 g. The number of heart beats under such condition was recorded using a polygraph.
# Initially, from 1×10^-7 mol to 3×10^-4 mol of histamine was allowed to act accumulatively to depict the curve of the dosage-reaction relationship. Likewise, the curve of the dosage of histamine-reaction relationship was depicted in the presence of 5×10^-7 mol to 1×10^-6 mol of the test sample which was injected 3 minutes before. The negative logarithm (pA2) of the molar concentration of the test sample required for moving the curve obtained by single administration of histamine parallel to the right side by a two-times concentration was calculated.
# [4] = Rattus norvegicus, 0.2 mg/kg SC, histamine 3 mg/kg SC, average of five runs, read-out: Secretion of Gastric Acid in Rat, Inhibition Rate (%)
# [5] = intraduodenal, 30 minutes before histamine SC, first series (Table 2-1), read-out: Median effective dose (ED50) inhibiting Gastric Acid Section (95% Reliability Limit)
# [6] = intraduodenal, 30 minutes before histamine SC, second series (Table 2-2), read-out: Median effective dose (ED50) inhibiting Gastric Acid Section (95% Reliability Limit)
Kb [3] [nM],Molecule,"inhibition in vivo at 0.2 mg/kg [1, 4] [%]","ED50 [2, 5] [mg/kg]",Efficacy Ratio relative to Cimetidine (Cimetidine = 1) [2],other results
–,5-dimethylaminomethylbenzyl-2-[4-<6-(1-pipelidinomethyl)pyridyl-2-oxy>-cis-2-butenylamino]-1H-pyrimidin-4-one [Ex. 45],–,–,–,"Secretion of Gastric Acid in Rat, Inhibition Rate (%) ([1]; 0.2 mg/kg SC, histamine 3 mg/kg SC, average of five runs): 36%"
–,"CN/C(=N/CCSCc1nc[nH]c1C)NC#N [Cimetidine, reference compound]",–,–,–,"inhibition in vivo at 2 mg/kg ([1]; Rattus norvegicus, sc, read-out: Secretion of Gastric Acid in Rat, Inhibition Rate (%)): 72%; ED50 ([2]; read-out: Median effective dose (ED50) inhibiting Gastric Acid Section (95% Reliability Limit), intraduodenal, 30 minutes before histamine SC, first series (Table 2-1)): 7 mg/kg; ED50 ([2]; read-out: Median effective dose (ED50) inhibiting Gastric Acid Section (95% Reliability Limit), intraduodenal, 30 minutes before histamine SC, second series (Table 2-2)): 8.2 mg/kg"
468,"CN(C)Cc1ccnc(OC/C=C\CNc2c(N)c(=O)c2=O)c1 [Ex. 3, 1-amino-2-<4-(4-dimethylaminomethylpyridyl-2-oxy)-cis-2-butenylamino>-1-cyclobuten-3,4-dione]",52,–,–,–
–,"CNc1c(NC/C=C\COc2cc(CN(C)C)ccn2)c(=O)c1=O [Ex. 4, 1-methylamino-2-<4-(4-dimethylaminomethylpyridyl-2-oxy)-cis-2-butenylamino>-1-cyclobuten-3,4-dione]",–,0.11,63.6,–
661,"Nc1n[s+]([O-])nc1NC/C=C\COc1cc(CN2CCCCC2)ccn1 (stereo not drawn) [Ex. 7, 3-amino-4-[4-<4-(1-piperidinomethyl)pyridyl-2-oxy>-cis-2-butenylamino]-1,2,5-thiadiazole-1-oxide]",90,0.44,15.9,–
490,"CNc1n[s+]([O-])nc1NC/C=C\COc1cc(CN2CCCCC2)ccn1 (stereo not drawn) [Ex. 8, 3-methylamino-4-[4-<4-(1-piperidinomethyl)pyridyl-2-oxy>-cis-2-butenylamino]-1,2,5-thiadiazole-1-oxide]",85,–,–,–
182,"CNc1n[s+]([O-])nc1NC/C=C/COc1cc(CN2CCCCC2)ccn1 (stereo not drawn) [Ex. 10, 3-methylamino-4-[4-<4-(1-piperidinomethyl)pyridyl-2-oxy>-trans-2-butenylamino]-1,2,5-thiadiazole-1-oxide]",52,–,–,–
708,"NC1=NS(=O)(=O)N=C1NC/C=C\COc1cc(CN2CCCCC2)ccn1 [Ex. 13, 3-amino-4-[4-<4-(1-piperidinomethyl)pyridyl-2-oxy>-cis-2-butenylamino]-1,2,5-thiadiazole-1,1-dioxide]",84,0.5,14.0,–
204,"Nc1nnc(NC/C=C\COc2cc(CN3CCCCC3)ccn2)s1 [Ex. 17, 2-amino-5-[4-<4-(1-piperidinomethyl)pyridyl-2-oxy>-cis-2-butenylamino]-1,3,4-thiadiazole]",69,0.14,50.0,–
316,"CN(C)Cc1c[nH]c(NC/C=C\COc2cc(CN3CCCCC3)ccn2)nc1=O [Ex. 21, 5-dimethylaminomethyl-2-[4-<4-(1-piperidinomethyl)pyridyl-2-oxy>-cis-2-butenylamino]-1H-pyrimidin-4-one]",65,–,–,–
1550,"CN(C)Cc1cccc(Cc2c[nH]c(NC/C=C\COc3cc(CN4CCCCC4)ccn3)nc2=O)c1 [Ex. 23, 5-(3-dimethylaminomethylbenzyl)-2-[4-<4-(1-piperidinomethyl)pyridyl-2-oxy>-cis-2-butenylamino]-1H-pyrimidin-4-one]",36,–,–,–
170,"O=c1nc(NC/C=C\COc2cc(CN3CCCCC3)ccn2)[nH]nc1Cc1cccnc1 [Ex. 25, 3-[4-<4-(1-piperidinomethyl)pyridyl-2-oxy>-cis-2-butenylamino]-6-(3-pyridylmethyl)-1,2,4-triazin-5-one]",55,0.14,50.0,–
263,"Nc1cc(NC/C=C\COc2cc(CN3CCCCC3)ccn2)[nH]c(=O)n1 [Ex. 26, 4-amino-6-[4-<4-(1-piperidinomethyl)pyridyl-2-oxy>-cis-2-butenylamino]-1H-pyrimidin-2-one]",83,–,–,–
490,"Nc1c(NC/C=C\COc2cccc(CN3CCCCC3)n2)c(=O)c1=O [Ex. 32, 1-amino-2-[4-<6-(1-piperidinomethyl)pyridyl-2-oxy>-cis-2-butenylamino]-1-cyclobuten-3,4-dione]",33,–,32.8,"ED50 [2, 6]: 0.25 mg/kg"
661,"CNc1c(NC/C=C\COc2cccc(CN3CCCCC3)n2)c(=O)c1=O [Ex. 33, 1-methylamino-2-[4-<6-(1-piperidinomethyl)pyridyl-2-oxy>-cis-2-butenylamino]-1-cyclobuten-3,4-dione]",34,–,–,–
933,"Nc1n[s+]([O-])nc1NC/C=C\COc1cccc(CN2CCCCC2)n1 (stereo not drawn) [Ex. 34, 3-amino-4-[4-<6-(1-piperidinomethyl)pyridyl-2-oxy>-cis-2-butenylamino]-1,2,5-thiadiazole-1-oxide]",81,–,–,–
1100,"CNc1n[s+]([O-])nc1NC/C=C\COc1cccc(CN2CCCCC2)n1 (stereo not drawn) [Ex. 35, 3-methylamino-4-[4-<6-(1-piperidinomethyl)pyridyl-2-oxy>-cis-2-butenylamino]-1,2,5-thiadiazole-1-oxide]",74,–,–,–
263,"NC1=NS(=O)(=O)N=C1NC/C=C\COc1cccc(CN2CCCCC2)n1 [Ex. 36, 3-amino-4-[4-<6-(1-piperidinomethyl)pyridyl-2-oxy>-cis-2-butenylamino]-1,2,5-thiadiazole-1,1-dioxide]",72,–,41.0,"ED50 [2, 6]: 0.2 mg/kg"
1550,"Nc1nnc(NC/C=C\COc2cccc(CN3CCCCC3)n2)s1 [Ex. 39, 2-amino-5-[4-<6-(1-piperidinomethyl)pyridyl-2-oxy>-cis-2-butenylamino]-1,3,4-thiadiazole]",36,–,–,–
1910,"Cn1nc(N)nc1NC/C=C\COc1cccc(CN2CCCCC2)n1 [Ex. 41, 3-amino-1-methyl-5-[4-<6-(1-piperidinomethyl)pyridyl-2-oxy>-cis-2-butenylamino]-1H-1,2,4-triazole]",32,–,–,–
617,"CN(C)Cc1c[nH]c(NC/C=C\COc2cccc(CN3CCCCC3)n2)nc1=O [Ex. 43, 5-dimethylaminomethyl-2-[4-<6-(1-piperidinomethyl)pyridyl-2-oxy>-cis-2-butenylamino]-1H-pyrimidin-4-one]",44,–,–,–
–,"Nc1cc(NC/C=C\COc2cccc(CN3CCCCC3)n2)[nH]c(=O)n1 [Ex. 47, 4-amino-6-[4-<6-(1-piperidinomethyl)pyridyl-2-oxy>-cis-2-butenylamino]-1H-pyrimidin-2-one]",40,–,–,–
1700,"Nc1n[nH]c(=O)nc1NC/C=C\COc1cccc(CN2CCCCC2)n1 [Ex. 49, 6-amino-5-[4-<6-(1-piperidinomethyl)pyridyl-2-oxy<-cis-2-butenylamino]-1,2,4-triazin-3-one]",45,–,–,–
–,"Nc1n[nH]c(=O)nc1NC/C=C/COc1cc(CN2CCCCC2)ccn1 [compound 30, 6-amino-5-[4-<4-(1-piperidinomethyl)pyridyl-2-oxy>trans-2-butenylamino]-1,2,4-triazin-3-one]",–,0.26,26.9,–
–,"CN(C)Cc1ccnc(OC/C=C\CNc2nc(=O)[nH]nc2N)c1 [compound 31, 6-amino-5-<4-(4-dimethylaminomethylpyridyl-2-oxy)-cis-2-butenylamino>-1,2,4-triazin-3-one]",–,0.28,25.0,–

Molecule,Kb [3] [nM],"inhibition in vivo at 0.2 mg/kg [1, 4] [%]","ED50 [2, 5] [mg/kg]",Efficacy Ratio relative to Cimetidine (Cimetidine = 1) [2],other results
"Nc1nsnc1NC/C=C\COc1cc(CN2CCCCC2)ccn1 [Ex. 15, 3-amino-4-[4-<4-(1-piperidinomethyl)pyridyl-2-oxy>-cis-2-butenylamino]-1,2,5-thiadiazole]",35.5,61,0.38,18.4,antagonistic actions against Histamine H2 -receptor (in words) ([3]; isolated right atria of guinea pigs): strong
